Data taken from ChEMBL document CHEMBL4017502, “Discovery and Characterization of (R)-6-Neopentyl-2-(pyridin-2-ylmethoxy)-6,7-dihydropyrimido[2,1-c][1,4]oxazin-4(9H)-one (PF-06462894), an Alkyne-Lacking Metabotropic Glutamate Receptor 5 Negative Allosteric Modulator Profiled in both Rat and Nonhuman Primates” (J Med Chem, 2017).
Values belong to the compound of their own block, whether it stands above or below them.

Legend:
[1] = Apparent permeability across apical to basolateral side in RRCK cells at 1 uM after 2 hrs by LC/MS-MS analysis; format: ADME, cell-based, Canis lupus familiaris, MDCKII-LE; conditions: dog, MDCK
[2] = Volume of distribution at steady state in Sprague-Dawley rat at 1 mg/kg, iv via single bolus administration; format: ADME, organism-based; conditions: in vivo, read-out: Vdss
[3] = Volume of distribution at steady state in cynomolgus monkey at 1 mg/kg, iv via single bolus administration; format: ADME, organism-based, Macaca fascicularis; conditions: in vivo, read-out: Vdss
[4] = Oral bioavailability in Sprague-Dawley rat at 25 mg/kg; format: ADME, organism-based; conditions: in vivo
[5] = Oral bioavailability cynomolgus monkey […] at 30 mg/kg; format: ADME, organism-based, Macaca fascicularis; conditions: in vivo
Plasma [6] = test: Plasma concentration in human; format: ADME, cell-free
[7] = Ratio of free AUC (0 to 4 hrs) in Sprague-Dawley rat brain to plasma at 0.32 to 1 mg/kg, sc; format: ADME, organism-based
[8] = Ratio of unbound drug level in cynomolgus monkey brain to plasma at 600 mg/kg, po measured 7.65 hrs post dose on day 1; format: ADME, organism-based, Macaca fascicularis; conditions: read-out: K(p,uu,brain)
[9] = Volume of distribution at steady state in 6 MPTP-treated dyskinetic PD-LID rhesus monkey at 2 mg/kg administered BID; format: ADME, organism-based, Macaca mulatta; conditions: in vivo, read-out: Vdss
[10] = Bioavailability in 6 MPTP-treated dyskinetic PD-LID rhesus monkey model at 2 mg/kg administered BID; format: ADME, organism-based, Macaca mulatta; conditions: in vivo
[11] = AUC (0 to 24 hrs) at steady state in Crl:CD(SD) rat at 50 mg/kg/day, administered via oral gavage for 14 consecutive days measured on day 13; format: ADME, organism-based; set-up: dose 50 mg/kg/day, time < 24 hr, route oral; conditions: in vivo
[12] = AUC (0 to 24 hrs) at steady state in Crl:CD(SD) rat at 150 mg/kg/day, administered via oral gavage for 14 consecutive days measured on day 13; format: ADME, organism-based; set-up: time < 24 hr, dose 150 mg/kg/day, route oral; conditions: in vivo
[13] = AUC (0 to 24 hrs) at steady state in Crl:CD(SD) rat at 500 mg/kg/day, administered via oral gavage for 14 consecutive days measured on day 13; format: ADME, organism-based; set-up: dose 500 mg/kg/day, time < 24 hr, route oral; conditions: in vivo
[14] = AUC (0 to 24 hrs) at steady state in cynomolgus monkey at 50 mg/kg/day, administered via oral gavage for 14 consecutive days measured on day 13; format: ADME, organism-based, Macaca fascicularis; set-up: time < 24 hr, dose 50 mg/kg/day, route oral; conditions: in vivo
[15] = AUC (0 to 24 hrs) at steady state in cynomolgus monkey at 150 mg/kg/day, administered via oral gavage for 14 consecutive days measured on day 13; format: ADME, organism-based, Macaca fascicularis; set-up: time < 24 hr, dose 150 mg/kg/day, route oral; conditions: in vivo
[16] = AUC (0 to 24 hrs) at steady state in cynomolgus monkey at 600 mg/kg/day, administered via oral gavage for 14 consecutive days measured on day 13; format: ADME, organism-based, Macaca fascicularis; set-up: dose 600 mg/kg/day, time < 24 hr, route oral; conditions: in vivo
Plasma [17] = test: Drug metabolism in Crl:CD(SD) rat plasma assessed as metabolite formation at 150 mg/kg, administered via oral gavage measured on day 1 by UV-LC-MS/MS analysis; format: ADME, organism-based; conditions: in vivo
Plasma [18] = test: Drug metabolism in cynomolgus monkey plasma assessed as monohydroxylated metabolite formation at 150 mg/kg, administered via oral gavage measured on day 12 by UV-LC-MS/MS analysis; format: ADME, organism-based, Macaca fascicularis; conditions: in vivo
Plasma [19] = test: Drug metabolism in cynomolgus monkey plasma assessed as N-oxygenated metabolite formation at 150 mg/kg, administered via oral gavage measured on day 12 by UV-LC-MS/MS analysis; format: ADME, organism-based, Macaca fascicularis; conditions: in vivo
Plasma [20] = test: Drug metabolism in cynomolgus monkey plasma assessed as O-dealkylated metabolite formation at 150 mg/kg, administered via oral gavage measured on day 12 by UV-LC-MS/MS analysis; format: ADME, organism-based, Macaca fascicularis; conditions: in vivo
Plasma [21] = test: Drug metabolism in cynomolgus monkey plasma assessed as glucuronidated metabolite formation at 150 mg/kg, administered via oral gavage measured on day 12 by UV-LC-MS/MS analysis; format: ADME, organism-based, Macaca fascicularis; conditions: in vivo
Plasma [22] = test: Drug metabolism in cynomolgus monkey plasma assessed as metabolite formation at 150 mg/kg, administered via oral gavage measured on day 1 by UV-LC-MS/MS analysis; format: ADME, organism-based, Macaca fascicularis; conditions: in vivo

Papp A→B at 2 h, 1 µM [1]: 26 ×10⁻⁶ cm/s
SMILES: O=c1cc(SCc2ccccn2)nc2ccccn12

Papp A→B at 2 h, 1 µM [1]: 29 ×10⁻⁶ cm/s
Vd [2]: 1.29 L/kg
Vd [3]: 1.24 L/kg
bioavailability [4]: 20%
bioavailability [5]: 11%
Cp (Plasma [6]): 31 ng/mL
Kp uu [7]: 1.22
Kp uu at 7.65 h [8]: 0.89
Vd [9]: 1 L/kg
bioavailability [10]: 91%
AUC at 24 h [11]: 23200 ng·h/mL
AUC at 24 h [12]: 117000 ng·h/mL
AUC at 24 h [13]: 313000 ng·h/mL
AUC at 24 h [14]: 3680 ng·h/mL
AUC at 24 h [15]: 45400 ng·h/mL
AUC at 24 h [16]: 41500 ng·h/mL
Drug metabolism (Plasma [17]): Metabolite_Detected
Drug metabolism (Plasma [18]): Metabolite_Detected
Drug metabolism (Plasma [19]): Metabolite_Detected
Drug metabolism (Plasma [20]): Metabolite_Detected
Drug metabolism (Plasma [21]): Metabolite_Detected
Drug metabolism (Plasma [22]): Metabolite_Detected
SMILES: CC(C)(C)C[C@@H]1COCc2nc(OCc3ccccn3)cc(=O)n21

Papp A→B at 2 h, 1 µM [1]: 26 ×10⁻⁶ cm/s
SMILES: N#Cc1cccc(COc2cc(=O)n3c(n2)COC[C@H]3Cc2ccccc2)c1

Papp A→B at 2 h, 1 µM [1]: 4 ×10⁻⁶ cm/s
SMILES: O=c1cc(OCc2cccc(Cl)c2)nc2n1[C@H](Cc1ccccc1)COC2

Papp A→B at 2 h, 1 µM [1]: 22 ×10⁻⁶ cm/s
SMILES: O=c1cc(OCCC2CC2)nc2n1[C@H](Cc1ccccc1)COC2

Papp A→B at 2 h, 1 µM [1]: 22 ×10⁻⁶ cm/s
SMILES: Cc1cccc(COc2cc(=O)n3c(n2)COC[C@H]3Cc2ccccc2)n1

Papp A→B at 2 h, 1 µM [1]: 7 ×10⁻⁶ cm/s
SMILES: O=c1cc(OCc2cccc(Cl)c2)nc2ccc(Oc3cccnc3)cn12

Papp A→B at 2 h, 1 µM [1]: 26 ×10⁻⁶ cm/s
SMILES: Cc1csc(COc2cc(=O)n3c(n2)COC[C@H]3Cc2ccccc2)n1

Papp A→B at 2 h, 1 µM [1]: 26 ×10⁻⁶ cm/s
SMILES: O=c1cc(OCc2cccc(Cl)c2)nc2n1CCCC2

Papp A→B at 2 h, 1 µM [1]: 16 ×10⁻⁶ cm/s
SMILES: O=c1cc(OCc2cccc(Cl)c2)nc2ccccn12

Papp A→B at 2 h, 1 µM [1]: 25 ×10⁻⁶ cm/s
SMILES: CC(C)(C)C[C@@H]1COCc2nc(OCc3cccc(C#N)c3)cc(=O)n21

Papp A→B at 2 h, 1 µM [1]: 28 ×10⁻⁶ cm/s
Vd [2]: 2.14 L/kg
Vd [3]: 2.23 L/kg
bioavailability [4]: 62%
bioavailability [5]: 43%
Kp uu [7]: 2.19
SMILES: CC(C)C[C@@H]1COCc2nc(OCc3cccc(C#N)c3)cc(=O)n21

Papp A→B at 2 h, 1 µM [1]: 4 ×10⁻⁶ cm/s
SMILES: O=c1cc(OCc2cccc(Cl)c2)nc2n1[C@@H](Cc1ccccc1)COC2

Papp A→B at 2 h, 1 µM [1]: 24 ×10⁻⁶ cm/s
SMILES: Cc1cccc(COc2cc(=O)n3cc(Oc4cccnc4)ccc3n2)n1

Papp A→B at 2 h, 1 µM [1]: 39 ×10⁻⁶ cm/s
SMILES: CC(C)C[C@@H]1COCc2nc(OCc3ccccn3)cc(=O)n21

Papp A→B at 2 h, 1 µM [1]: 28 ×10⁻⁶ cm/s
SMILES: O=c1cc(OCc2ccccn2)nc2n1[C@H](Cc1ccccc1)COC2

Papp A→B at 2 h, 1 µM [1]: 31 ×10⁻⁶ cm/s
SMILES: O=c1cc(OCc2cccc(Cl)c2)nc2n1CCOC2
